According to US20190022152A1, “MICROBIOME RESPONSE TO AGENTS” (Yeda Research and Development Co., Ltd., priority 2014, published 2019):
Read-outs that look alike come from different tables or passages of the source.

Tested on: fecal microbiota
Settings: fecal samples, 11 weeks consumption
Protocol: Illumina sequence reads were mapped to the human microbiome reference genome database of the Human Microbiome Project [www(dot)hmpdacc(dot)org/HMREFG/^32], and to a gut microbial gene catalogue^33 using GEM mapper^58 with the following parameters: • -m 3 -s 0 -q offset-33 -gem-quality-threshold 26
Microbial species abundance was measured as the fraction of reads that mapped to a single species in the database. An EM algorithm adapted from Pathoscope^59 was employed to determine the correct assignment of reads that mapped to more than one species. We considered only species for which at least 10% of the genome was covered (each coverage bin was 10,000-bp long) in at least one of the growth conditions (saccharin, water, or glucose). Reads mapped to the gut microbial gene catalogue were assigned a KEGG^34,35 ID according to the mapping available with the catalogue. Genes were subsequently mapped to KEGG pathways, and only pathways whose gene coverage was above 0.2 were included.

`OC[C@H]1OC(O)[C@H](O)[C@@H](O)[C@@H]1O` (stereo partly drawn) [Glucose] was tested, and the “Fold change (week 11/week 0) in relative species abundance” value (Symbol BACT_9, Number 996) was 1.24, the “Fold change (week 11/week 0) in relative species abundance” value (Symbol BACT_49, Number 420) was 0.15 and the “Fold change (week 11/week 0) in relative species abundance” value (Symbol BACT_60, Number 752) was 0.88. For the same compound, the “Fold change (week 11/week 0) in relative species abundance” value (Symbol BACT_65, Number 918) was 1.20, the “Fold change (week 11/week 0) in relative species abundance” value (Symbol BACT_70, Number 863) was 1.58 and the “Fold change (week 11/week 0) in relative species abundance” value (Symbol BACT_85, Number 934) was 0.91. The “Fold change (week 11/week 0) in relative species abundance” value (Symbol BACT_170, Number 883) was 0.93, the “Fold change (week 11/week 0) in relative species abundance” value (Symbol BACT_171, Number 748) was 1.24 and the “Fold change (week 11/week 0) in relative species abundance” value (Symbol BACT_178, Number 921) was 1.53. The “Fold change (week 11/week 0) in relative species abundance” value (Symbol BACT_181, Number 767) was 1.14, the “Fold change (week 11/week 0) in relative species abundance” value (Symbol BACT_185, Number 633) was 5.63 and the “Fold change (week 11/week 0) in relative species abundance” value (Symbol BACT_189, Number 636) was 1.66. The “Fold change (week 11/week 0) in relative species abundance” value (Symbol BACT_192, Number 995) was 0.86, the “Fold change (week 11/week 0) in relative species abundance” value (Symbol BACT_195, Number 523) was 1.15 and the “Fold change (week 11/week 0) in relative species abundance” value (Symbol BACT_225, Number 953) was 1.18. The “Fold change (week 11/week 0) in relative species abundance” value (Symbol BACT_258, Number 620) was 1.13, the “Fold change (week 11/week 0) in relative species abundance” value (Symbol BACT_260, Number 1443) was 0.94 and the “Fold change (week 11/week 0) in relative species abundance” value (Symbol BACT_300, Number 769) was 1.16. For the same compound, the “Fold change (week 11/week 0) in relative species abundance” value (Symbol BACT_413, Number 847) was 1.17, the “Fold change (week 11/week 0) in relative species abundance” value (Symbol BACT_419, Number 920) was 0.67 and the “Fold change (week 11/week 0) in relative species abundance” value (Symbol BACT_420, Number 922) was 0.87. For the same compound, the “Fold change (week 11/week 0) in relative species abundance” value (Symbol BACT_424, Number 906) was 1.13, the “Fold change (week 11/week 0) in relative species abundance” value (Symbol BACT_449, Number 772) was 1.13 and the “Fold change (week 11/week 0) in relative species abundance” value (Symbol BACT_463, Number 719) was 1.55. For the same compound, the “Fold change (week 11/week 0) in relative species abundance” value (Symbol BACT_496, Number 765) was 0.62, the “Fold change (week 11/week 0) in relative species abundance” value (Symbol BACT_499, Number 35) was 0.73 and the “Fold change (week 11/week 0) in relative species abundance” value (Symbol BACT_511, Number 591) was 1.55. For the same compound, the “Fold change (week 11/week 0) in relative species abundance” value (Symbol BACT_535, Number 940) was 0.66, the “Fold change (week 11/week 0) in relative species abundance” value (Symbol BACT_539, Number 117) was 0.75 and the “Fold change (week 11/week 0) in relative species abundance” value (Symbol BACT_551, Number 907) was 0.73. For the same compound, the “Fold change (week 11/week 0) in relative species abundance” value (Symbol BACT_572, Number 963) was 0.92, the “Fold change (week 11/week 0) in relative species abundance” value (Symbol BACT_627, Number 886) was 0.66 and the “Fold change (week 11/week 0) in relative species abundance” value (Symbol BACT_681, Number 125) was 1.55. The “Fold change (week 11/week 0) in relative species abundance” value (Symbol BACT_722, Number 377) was 1.47, the “Fold change (week 11/week 0) in relative species abundance” value (Symbol BACT_843, Number 1318) was 0.69 and the “Fold change (week 11/week 0) in relative species abundance” value (Symbol BACT_850, Number 394) was 1.86. For the same compound, the “Fold change (week 11/week 0) in relative species abundance” value (Symbol BACT_852, Number 766) was 0.88, the “Fold change (week 11/week 0) in relative species abundance” value (Symbol BACT_855, Number 835) was 1.23 and the “Fold change (week 11/week 0) in relative species abundance” value (Symbol BACT_890, Number 163) was 0.74. For the same compound, the “Fold change (week 11/week 0) in relative species abundance” value (Symbol BACT_913, Number 904) was 1.17, the “Fold change (week 11/week 0) in relative species abundance” value (Symbol BACT_915, Number 1315) was 1.23 and the “Fold change (week 11/week 0) in relative species abundance” value (Symbol BACT_1001, Number 933) was 0.79. For the same compound, the “Fold change (week 11/week 0) in relative species abundance” value (Symbol BACT_1083, Number 1008) was 2.25, the “Fold change (week 11/week 0) in relative species abundance” value (Symbol BACT_1131, Number 942) was 0.79 and the “Fold change (week 11/week 0) in relative species abundance” value (Symbol BACT_1311, Number 1259) was 1.16. The “Fold change (week 11/week 0) in relative species abundance” value (Symbol BACT_1321, Number 1255) was 1.16, the “Fold change (week 11/week 0) in relative species abundance” value (Symbol BACT_1322, Number 1396) was 1.50 and the “Fold change (week 11/week 0) in relative species abundance” value (Symbol BACT_1324, Number 1264) was 2.61. For the same compound, the “Fold change (week 11/week 0) in relative species abundance” value (Symbol BACT_1348, Number 1311) was 1.15, the “Fold change (week 11/week 0) in relative species abundance” value (Symbol BACT_1378, Number 1375) was 2.83 and the “Fold change (week 11/week 0) in relative species abundance” value (Symbol BACT_1427, Number 1266) was 1.13. For the same compound, the “Fold change (week 11/week 0) in relative species abundance” value (Symbol BACT_1442, Number 1400) was 1.75, the “Fold change (week 11/week 0) in relative species abundance” value (Symbol BACT_1457, Number 1337) was 0.82 and the “Fold change (week 11/week 0) in relative species abundance” value (Symbol BACT_1501, Number 1331) was 0.79. The “Fold change (week 11/week 0) in relative species abundance” value (Symbol BACT_1526, Number 1227) was 1.58, the “Fold change (week 11/week 0) in relative species abundance” value (Symbol BACT_1555, Number 1469) was 0.62 and the “Fold change (week 11/week 0) in relative species abundance” value (Symbol BACT_1569, Number 1462) was 0.78. For the same compound, the “Fold change (week 11/week 0) in relative species abundance” value (Symbol BACT_1595, Number 1533) was 1.13, the “Fold change (week 11/week 0) in relative species abundance” value (Symbol BACT_1656, Number 1503) was 1.55 and the “Fold change (week 11/week 0) in relative species abundance” value (Symbol BACT_3004, Number 5797) was 1.54. For the same compound, the “Fold change (week 11/week 0) in relative species abundance” value (Symbol BACT_3005, Number 5799) was 1.56, the “Fold change (week 11/week 0) in relative species abundance” value (Symbol BACT_3007, Number 5798) was 0.94 and the “Fold change (week 11/week 0) in relative species abundance” value (Symbol BACT_3024, Number 5841) was 0.72. For the same compound, the “Fold change (week 11/week 0) in relative species abundance” value (Symbol BACT_3045, Number 5818) was 1.19, the “Fold change (week 11/week 0) in relative species abundance” value (Symbol BACT_3058, Number 5816) was 1.54 and the “Fold change (week 11/week 0) in relative species abundance” value (Symbol BACT_3060, Number 5821) was 1.62. The “Fold change (week 11/week 0) in relative species abundance” value (Symbol BACT_3062, Number 5800) was 1.49, the “Fold change (week 11/week 0) in relative species abundance” value (Symbol BACT_3085, Number 5842) was 1.90 and the “Fold change (week 11/week 0) in relative species abundance” value (Symbol BACT_4040, Number 5769) was 16.24. For the same compound, the “Fold change (week 11/week 0) in relative species abundance” value (Symbol BACT_4042, Number 5770) was 0.28, the “Fold change (week 11/week 0) in relative species abundance” value (Symbol EUKY_222, Number 1954) was 1.60 and the “Fold change (week 11/week 0) in relative species abundance” value (Symbol V1RL3522, Number 3522) was 2.13.
